Reference: paper PMC6366404, “4-(3-Nitrophenyl)thiazol-2-ylhydrazone derivatives as antioxidants and selective hMAO-B inhibitors: synthesis, biological activity and computational analysis” (Journal of Enzyme Inhibition and Medicinal Chemistry, 2019)
Read-outs that look alike come from different tables or passages of the source.

Key:
hMAO-B = target: T1, hMAO-B (Homo sapiens, UniProt P27338); experiment: hMAO-B inhibition, IC50 determination (kynuramine fluorescence); format: biochemical; conditions: for Selectivity index (SI) for the MAO-B isoform: ratio (IC50 hMAO-A)/(IC50 hMAO-B)
T1 sequence (P27338 1-520): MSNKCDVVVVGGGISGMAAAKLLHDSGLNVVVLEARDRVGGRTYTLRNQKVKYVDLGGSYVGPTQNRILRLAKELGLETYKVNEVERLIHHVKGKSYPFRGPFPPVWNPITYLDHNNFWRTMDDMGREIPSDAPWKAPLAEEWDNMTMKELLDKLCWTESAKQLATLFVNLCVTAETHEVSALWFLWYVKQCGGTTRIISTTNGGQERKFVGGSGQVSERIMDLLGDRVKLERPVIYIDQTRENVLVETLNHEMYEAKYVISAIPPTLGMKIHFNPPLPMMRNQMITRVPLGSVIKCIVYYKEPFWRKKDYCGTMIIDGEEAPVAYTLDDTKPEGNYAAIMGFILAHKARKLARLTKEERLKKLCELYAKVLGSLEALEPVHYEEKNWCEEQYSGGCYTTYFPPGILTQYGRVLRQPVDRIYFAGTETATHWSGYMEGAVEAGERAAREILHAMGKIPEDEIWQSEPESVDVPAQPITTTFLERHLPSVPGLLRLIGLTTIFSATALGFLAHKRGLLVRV
Experimental: The procedure for the measurement of IC50 values for the inhibition of MAO has been reported. The enzyme reactions were prepared to a volume of […] in potassium phosphate buffer at pH 7.4 (100 mM, made isotonic with KCl) and contained kynuramine (50 μM) and the test inhibitors (0.003–100 µM). Stock solutions of the test inhibitors were prepared in DMSO and added to the reactions to yield 4% DMSO. The enzyme reactions were initiated with the addition of recombinant hMAO-A (0.0075 mg protein/mL) or hMAO-B (0.015 mg protein/mL) and incubated for 20 min at 37 °C. At endpoint, the reactions were terminated with 80 µL sodium hydroxide (2N) and the fluorescence of 4-hydroxyquinoline, the oxidation product of kynuramine, was measured (λex = 310; λem = 400 nm)[33]. 4-Hydroxyquinoline was quantified with a calibration curve (0.047–1.56 μM) and the rate of 4-hydroxyquinoline formation was fitted to the one site competition model of the Prism 5 software package (GraphPad). From the resulting sigmoidal plots, the IC50 values were estimated. All enzyme reactions were carried out in triplicate and IC50 values are given as the mean ± standard deviation (SD).

[1] = ABTS radical cation scavenging activity
Experimental: (§1) The scavenging activity of the compounds on the ABTS radical cation [ABTS,2,2′-azino-bis(3-ethylbenzothiazoline)-6-sulphonic acid] was measured according to the method of Zengin et al.[37] with slight modification. Briefly, ABTS^+ was produced directly by reacting a 7 mM ABTS solution with 2.45 mM potassium persulphate and allowing the mixture to incubate for 12–16 h in the dark at room temperature. Prior to initiating the assay, the ABTS solution was diluted with methanol to an absorbance of 0.700 ± 0.02 at 734 nm. The sample solution (1 ml) was added to the ABTS^+ solution (2 ml) and mixed, and the sample absorbance was recorded at 734 nm after 30 min incubation at room temperature. The corresponding IC50 value, which is the effective concentration at which 50% of DPPH/ABTS radicals are scavenged, was calculated for each compound and trolox, as a reference drug.

[2] = Phosphomolybdenum assay (PhosphoMo), total antioxidant activity; conditions: concentration at which absorbance was 0.5
Experimental: The total antioxidant activity of the compounds was evaluated by phosphomolybdenum method according to Zengin et al.[35]. The sample solution (0.3 ml) was combined with 3 ml of reagent solution (0.6 M sulphuric acid, 28 mM sodium phosphate, and 4 mM ammonium molybdate) and the absorbance was recorded at 695 nm after 90 min incubation at 95 °C. The EC50, which is the effective concentration at which the absorbance was 0.5, was calculated for each compound and trolox, as a reference drug.

[3] = FRAP (ferric reducing antioxidant power) assay
Experimental: (§2) The FRAP (ferric reducing antioxidant power) assay was carried out as described by Zengin et al.[38]. The sample solution (0.1 ml) was added to the premixed FRAP reagent (2 ml) containing acetate buffer (0.3 M, pH 3.6), 2,4,6-tris(2-pyridyl)-s-triazine (10 mM) in 40 mM HCl, and ferric chloride (20 mM) in a ratio of 10/1/1 (v/v/v). The absorbance of the sample was subsequently recorded at 593 nm after 30 min incubation at room temperature. Both results were expressed as EC50 values, using trolox as a reference drug.

[4] = Cupric ion reducing activity (CUPRAC)
Experimental: The cupric ion reducing activity (CUPRAC) was determined according to the method of Zengin et al.[38]. The sample solution (0.5 ml) was added to a premixed reaction mixture containing CuCl2 (1 ml, 10 mM), neocuproine (1 ml, 7.5 mM), and NH4Ac buffer (1 ml, 1 M, pH 7.0). Similarly, a blank was prepared by adding the sample solution (0.5 ml) to a premixed reaction mixture (3 ml) without CuCl2. The absorbances of the sample and blank were subsequently recorded at 450 nm after 30 min incubation at room temperature. The absorbance of the blank was subtracted from that of the sample.
as §2

[5] = DPPH radical scavenging activity
Experimental: The radical scavenging effect of the compounds using the 1,1-diphenyl-2-picrylhydrazyl (DPPH) radical was estimated according to Zengin et al.[36]. The sample solution (1 ml) was added to 4 ml of a 0.004% solution of DPPH in methanol. The sample absorbance was recorded at 517 nm after 30 min incubation at room temperature in the dark.
as §1

[6] = Metal chelating activity on ferrous ions; conditions: ferrozine
Experimental: Metal chelating activity on ferrous ions was evaluated by the method previously described. Briefly, the sample solution (2 ml) was added to FeCl2 solution (0.05 ml, 2 mM). The reaction was initiated by the addition of 5 mM ferrozine (0.2 ml). Similarly, a blank was prepared by adding the sample solution (2 ml) to FeCl2 solution (0.05 ml, 2 mM) and water (0.2 ml) without ferrozine. Then, the sample and blank absorbance were recorded at 562 nm after incubation for 10 min at room temperature. The absorbance of the blank was subtracted from that of the sample. EDTA was used as a positive control and this property was expressed as IC50 value for each compound.

[7] = recombinant hMAO-B, kynuramine 50 μM, 20 min, 37 °C, read-out: IC50 hMAO-B

Compound `O=[N+]([O-])c1cccc(-c2csc(NN=Cc3ccco3)n2)c1` [Compound 1, 1-(Furan-2-ylmethylene)-2-(4-(3-nitrophenyl)thiazol-2-yl)hydrazine] has an IC50 (hMAO-B; [7]) of 0.095 µM and a melting point of 213 to 215 °C.
In the case of `CC(=NNc1nc(-c2cccc([N+](=O)[O-])c2)cs1)c1ccccc1` [Compound 11, 1-(4-(3-Nitrophenyl)thiazol-2-yl)-2-(1-phenylethylidene)hydrazine], the IC50 [1] is reported as 1040 ± 10 µM, the EC50 [2] is reported as 1460 ± 80 µM and the EC50 [3] is reported as 590 ± 10 µM. For the same compound, the EC50 [4] was 550 ± 20 µM, the IC50 (hMAO-B) was 0.0071 µM and the “Selectivity index (SI) for the MAO-B isoform” value (shortened to “Selectivity index (SI)”) (hMAO-B) was 666. The melting point was 261 to 263 °C, the IC50 [5] was 1280 ± 10 µM and the IC50 [6] was > 5000 µM.
`CC(=NNc1nc(-c2cccc([N+](=O)[O-])c2)cs1)c1ccsc1` [Compound 5, 1-(4-(3-Nitrophenyl)thiazol-2-yl)-2-(1-(thiophen-3-yl)ethylidene)hydrazine] gave an IC50 [1] of 1050 ± 20 µM, an EC50 [2] of 1160 ± 30 µM and an EC50 [3] of 520 ± 20 µM. It also gave an EC50 [4] of 480 ± 30 µM, an IC50 (hMAO-B) of 0.0025 µM and an IC50 [5] of 1210 ± 10 µM. The IC50 [6] was > 5000 µM.
For `CC(=NNc1nc(-c2cccc([N+](=O)[O-])c2)cs1)c1ccccc1[N+](=O)[O-]` [Compound 13, 1-(1-(2-Nitrophenyl)ethylidene)-2-(4-(3-nitrophenyl)thiazol-2-yl)hydrazine], the IC50 [1] was 1040 ± 10 µM, the EC50 [2] was 3100 ± 360 µM and the EC50 [3] was 450 ± 40 µM. The EC50 [4] was 400 ± 10 µM, the “Selectivity index (SI)” value (hMAO-B) was 3477 and the IC50 (hMAO-B; [7]) was 0.0044 µM. For the same compound, the IC50 [5] was 1590 ± 10 µM and the IC50 [6] was > 5000 µM.
For `CC(=O)c1ccc(C(C)=NNc2nc(-c3cccc([N+](=O)[O-])c3)cs2)cc1` [Compound 31, 1-(1-(4-Acetylphenyl)ethylidene)-2-(4-(3-nitrophenyl)thiazol-2-yl)hydrazine], the “Selectivity index (SI)” value (hMAO-B) was 5.4, the IC50 (hMAO-B; [7]) was 42.1 µM and the melting point was 205 to 207 °C.
